The source of these data is patent US10428083B2, “Heterocyclylmethyl-thienouracile as antagonists of the adenosine-A2B-receptor” (BAYER PHARMA AKTIENGESELLSCHAFT, priority 2015, dated 2019).

Structures are written as SMILES.

For this experiment, the target named is human adenosine A2b receptor (Homo sapiens (Human), UniProt P29275). The experiment in a line: Cellular in vitro reporter gene test for A2b receptor activity (CHO-K1, CRE-luciferase, NECA stimulation). The format is cell-based. The following applies: recombinant CHO-K1 cell line, CRE-luciferase reporter, antagonism of EC50 concentration of NECA; in some cases means of several determinations, rounded to two significant figures; read-out: A2b receptor IC50. The protocol: B-1. Cellular In Vitro Tests for Determining A2b Receptor Activity and Adenosine Receptor Selectivity
Chain of human adenosine A2b receptor (P29275 whole entry): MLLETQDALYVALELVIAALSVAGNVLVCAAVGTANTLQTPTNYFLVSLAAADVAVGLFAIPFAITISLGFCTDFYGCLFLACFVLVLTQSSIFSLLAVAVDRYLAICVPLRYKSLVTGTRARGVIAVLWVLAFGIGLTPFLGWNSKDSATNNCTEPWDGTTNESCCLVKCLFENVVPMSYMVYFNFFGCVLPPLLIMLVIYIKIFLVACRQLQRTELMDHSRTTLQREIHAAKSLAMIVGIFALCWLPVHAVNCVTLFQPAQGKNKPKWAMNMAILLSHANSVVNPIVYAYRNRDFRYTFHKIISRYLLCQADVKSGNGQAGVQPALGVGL
In the case of the A2a and A2b cell lines, this is a minimal promoter having a plurality of cAMP-responsive elements (CRE). Stimulation of the Gs-coupled A2b or A2a receptors by NECA ultimately leads, via formation of cAMP, to CRE-dependent induction of luciferase expression, which is detected 3 hours after the start of the incubation with NECA using a detection solution in a suitable luminometer. For testing the antagonists, initially, in a pre-experiment, the concentration of NECA which, at the test day in question, results in half-maximum stimulation of luciferase expression (EC50 concentration) is determined. By joint incubation of this EC50 concentration of NECA with the substances to be tested, it is possible to determine their antagonistic activity.
`CCn1c(=O)c2c(C)c(CN3CCOCC3=O)sc2n(CCC(F)(F)F)c1=O` [Example 14, 3-Ethyl-5-methyl-6-[(3-oxomorpholin-4-yl)methyl]-1-(3,3,3-trifluoropropyl)thieno[2,3-d]pyrimidine-2,4(1H,3H)-dione]: the IC50 stood at 19 nM. With `Cc1c(CN2CCNC2=NC#N)sc2c1c(=O)n(CC(C)(C)C)c(=O)n2CC1CCCO1` (single isomer, unassigned) [Example 447, [1-{[3-(2,2-Dimethylpropyl)-5-methyl-2,4-dioxo-1-(tetrahydrofuran-2-ylmethyl)-1,2,3,4-tetrahydrothieno[2,3-d]pyrimidin-6-yl]methyl}imidazolidin-2-ylidene]cyanamide], the IC50 was 9.7 nM. For the compound `Cc1c(CN2CCNC2=O)sc2c1c(=O)n(CC(F)F)c(=O)n2CC1CCCO1` (racemic) [Example 219, 3-(2,2-Difluoroethyl)-5-methyl-6-[(2-oxoimidazolidin-1-yl)methyl]-1-(tetrahydrofuran-2-ylmethyl)thieno[2,3-d]pyrimidine-2,4(1H,3H)-dione], the IC50 came to 19 nM.

As for `COCCn1c(=O)c2c(C)c(CN3CCNC3=S)sc2n(CCC(F)(F)F)c1=O` [Example 167, 3-(2-Methoxyethyl)-5-methyl-6-[(2-thioxoimidazolidin-1-yl)methyl]-1-(3,3,3-trifluoropropyl)thieno[2,3-d]pyrimidine-2,4(1H,3H)-dione], the IC50 was 1.2 nM. To `Cc1c(CN2CCN(C)C2=S)sc2c1c(=O)n(CC(F)(F)F)c(=O)n2CCCF` [Example 173, 1-(3-Fluoropropyl)-5-methyl-6-[(3-methyl-2-thioxoimidazolidin-1-yl)methyl]-3-(2,2,2-trifluoroethyl)thieno[2,3-d]pyrimidine-2,4(1H,3H)-dione] belongs 73 nM; to `Cc1c(Cn2cc[nH]c2=O)sc2c1c(=O)n(CC(F)(F)F)c(=O)n2CC1CCCO1` (racemic) [Example 341, 5-Methyl-6-[(2-oxo-2,3-dihydro-1H-imidazol-1-yl)methyl]-1-(tetrahydrofuran-2-ylmethyl)-3-(2,2,2-trifluoroethyl)thieno[2,3-d]pyrimidine-2,4(1H,3H)-dione], 12 nM. As to `COC(C)Cn1c(=O)c2c(C)c(CN3CCNC(=O)C3=O)sc2n(CCC(F)(F)F)c1=O` (single isomer, unassigned) [Example 495, 6-[(2,3-Dioxopiperazin-1-yl)methyl]-3-(2-methoxypropyl)-5-methyl-1-(3,3,3-trifluoropropyl)thieno[2,3-d]pyrimidine-2,4(1H,3H)-dione], the IC50 was determined as 57 nM. `COCCn1c(=O)c2c(C)c(Cn3[nH]ccc3=O)sc2n(CC2CCCO2)c1=O` (single isomer, unassigned) [Example 290, 3-(2-Methoxyethyl)-5-methyl-6-[(5-oxo-2,5-dihydro-1H-pyrazol-1-yl)methyl]-1-(tetrahydrofuran-2-ylmethyl)thieno[2,3-d]pyrimidine-2,4(1H,3H)-dione]: the IC50 came to 400 nM. To `[2H]C([2H])(c1sc2c(c1C)c(=O)n(CC(F)(F)F)c(=O)n2CCOC)N1CCNC1=NC#N` [Example 513, [1-{[1-(2-Methoxyethyl)-5-methyl-2,4-dioxo-3-(2,2,2-trifluoroethyl)-1,2,3,4-tetrahydrothieno[2,3-d]pyrimidin-6-yl](dideutero)methyl}imidazolidin-2-ylidene]cyanamide] belongs 8.4 nM; to `Cc1c(CN2CCNC2=O)sc2c1c(=O)n(CC(F)(F)F)c(=O)n2CC1CCCO1` (single isomer, unassigned) [Example 211, 5-Methyl-6-[(2-oxoimidazolidin-1-yl)methyl]-1-(tetrahydrofuran-2-ylmethyl)-3-(2,2,2-trifluoroethyl)thieno[2,3-d]pyrimidine-2,4(1H,3H)-dione], 17 nM. Take `Cc1c(CN2CCNC2=NC#N)sc2c1c(=O)n(CC(F)(F)F)c(=O)n2CC1CCCO1` (racemic) [Example 269, [1-{[5-Methyl-2,4-dioxo-1-(tetrahydrofuran-2-ylmethyl)-3-(2,2,2-trifluoroethyl)-1,2,3,4-tetrahydrothieno[2,3-d]pyrimidin-6-yl]methyl}imidazolidin-2-ylidene]cyanamide]: the IC50 was 24 nM. As for `Cc1c(CN2CCN(C(C)C)C2=S)sc2c1c(=O)n(CC(C)C)c(=O)n2CCCF` [Example 304, 1-(3-Fluoropropyl)-3-isobutyl-6-[(3-isopropyl-2-thioxoimidazolidin-1-yl)methyl]-5-methylthieno[2,3-d]pyrimidine-2,4(1H,3H)-dione], the IC50 is 73 nM. To `Cc1c(CN2CCNC2=NC#N)sc2c1c(=O)n(CC(F)(F)F)c(=O)n2CC1CCO1` (centres unmarked) [Example 359, [1-{[5-Methyl-1-(oxetan-2-ylmethyl)-2,4-dioxo-3-(2,2,2-trifluoroethyl)-1,2,3,4-tetrahydrothieno[2,3-d]pyrimidin-6-yl]methyl}imidazolidin-2-ylidene]cyanamide] belongs 37 nM; to `CCn1c(=O)c2c(C)c(CN3CCNC3=O)sc2n(CC2CCOC2)c1=O` (single isomer, unassigned; enantiomer 1) [Example 74, 3-Ethyl-5-methyl-6-[(2-oxoimidazolidin-1-yl)methyl]-1-(tetrahydrofuran-3-ylmethyl)thieno[2,3-d]pyrimidine-2,4(1H,3H)-dione (Enantiomer 1)], 36 nM; to `COCCn1c(=O)c2c(C)c(CN3CCNC(=O)C3=O)sc2n(CCC(F)(F)F)c1=O` [Example 276, 6-[(2,3-Dioxopiperazin-1-yl)methyl]-3-(2-methoxyethyl)-5-methyl-1-(3,3,3-trifluoropropyl)thieno[2,3-d]pyrimidine-2,4(1H,3H)-dione], 9.9 nM. Regarding `CCCN1CCN(Cc2sc3c(c2C)c(=O)n(CCc2ccccc2)c(=O)n3CCOC)C1=O` [Example 240, 1-(2-Methoxyethyl)-5-methyl-6-[(2-oxo-3-propylimidazolidin-1-yl)methyl]-3-(2-phenylethyl)thieno[2,3-d]pyrimidine-2,4(1H,3H)-dione], the IC50 came out at 19 nM.

`COCCn1c(=O)n(C(C)C(F)(F)F)c(=O)c2c(C)c(CN3CCNC3=NC(=O)OC)sc21` (single isomer, unassigned) [Example 514, Methyl [1-{[1-(2-methoxyethyl)-5-methyl-2,4-dioxo-3-(1,1,1-trifluoropropan-2-yl)-1,2,3,4-tetrahydrothieno[2,3-d]pyrimidin-6-yl]methyl}imidazolidin-2-ylidene]carbamate]: the IC50 stood at 32 nM. For `Cc1c(Cn2nc[nH]c2=O)sc2c1c(=O)n(C(C)C)c(=O)n2CF` [Example 422, 1-(Fluoromethyl)-3-isopropyl-5-methyl-6-[(5-oxo-4,5-dihydro-1H-1,2,4-triazol-1-yl)methyl]thieno[2,3-d]pyrimidine-2,4(1H,3H)-dione], the IC50 was 170 nM. As to `CCn1c(=O)c2c(C)c(CN3CCNC3=S)sc2n(CCOC)c1=O` [Example 31, 3-Ethyl-1-(2-methoxyethyl)-5-methyl-6-[(2-thioxoimidazolidin-1-yl)methyl]thieno[2,3-d]pyrimidine-2,4(1H,3H)-dione], the IC50 was 2.2 nM. To `Cc1c(Cn2cc[nH]c2=O)sc2c1c(=O)n(CC(C)(C)C)c(=O)n2CC1CCCO1` (racemic) [Example 507, 3-(2,2-Dimethylpropyl)-5-methyl-6-[(2-oxo-2,3-dihydro-1H-imidazol-1-yl)methyl]-1-(tetrahydrofuran-2-ylmethyl)thieno[2,3-d]pyrimidine-2,4(1H,3H)-dione] belongs 28 nM; to `CCn1c(=O)c2c(C)c(CN3CCCNC3=O)sc2n(CCC(F)(F)F)c1=O` [Example 107, 3-Ethyl-5-methyl-6-[(2-oxotetrahydropyrimidin-1(2H)-yl)methyl]-1-(3,3,3-trifluoropropyl)thieno[2,3-d]pyrimidine-2,4(1H,3H)-dione], 11 nM; to `CCn1c(=O)c2c(C)c(CN3CCNC(=O)C3=O)sc2n(CC2CCCO2)c1=O` (racemic) [Example 475, 6-[(2,3-Dioxopiperazin-1-yl)methyl]-3-ethyl-5-methyl-1-(tetrahydrofuran-2-ylmethyl)thieno[2,3-d]pyrimidine-2,4(1H,3H)-dione], 36 nM. `Cc1c(Cn2cc[nH]c2=O)sc2c1c(=O)n(CC(F)(F)F)c(=O)n2CC1CCCO1` (single isomer, unassigned) [Example 343, 5-Methyl-6-[(2-oxo-2,3-dihydro-1H-imidazol-1-yl)methyl]-1-(tetrahydrofuran-2-ylmethyl)-3-(2,2,2-trifluoroethyl)thieno[2,3-d]pyrimidine-2,4(1H,3H)-dione]: the IC50 stood at 25 nM. As to `COCCn1c(=O)n(CC=C(C)C)c(=O)c2c(C)c(CN3CCNC3=O)sc21` [Example 203, 1-(2-Methoxyethyl)-5-methyl-3-(3-methylbut-2-en-1-yl)-6-[(2-oxoimidazolidin-1-yl)methyl]thieno[2,3-d]pyrimidine-2,4(1H,3H)-dione], the IC50 amounted to 57 nM. With `Cc1c(CN2CCNC2=NC#N)sc2c1c(=O)n(C(C)C)c(=O)n2CC1CCCO1` (single isomer, unassigned) [Example 357, [1-{[3-Isopropyl-5-methyl-2,4-dioxo-1-(tetrahydrofuran-2-ylmethyl)-1,2,3,4-tetrahydrothieno[2,3-d]pyrimidin-6-yl]methyl}imidazolidin-2-ylidene]cyanamide], the IC50 came to 32 nM. To `COCCn1c(=O)c2c(C)c(CN3CCNC3=S)sc2n(CCOC)c1=O` [Example 168, 1,3-Bis(2-methoxyethyl)-5-methyl-6-[(2-thioxoimidazolidin-1-yl)methyl]thieno[2,3-d]pyrimidine-2,4(1H,3H)-dione] belongs 15 nM.
